According to patent publication US5470854A, “2-phenylbenzo[B]furans, process for their manufacture and pharmaceutical preparations containing them” (Schering Aktiengesellschaft, priority 1991, dated 1995):

Assays:
[1] = biological target: T1, oestrogen receptor (Bos taurus, UniProt P49884); assay: Relative bonding affinity to the oestrogen receptor (competition with 3H-17β-Estradiol); format: binding, calf; settings: for RBA* (relative bonding affinity to the oestrogen receptor): calves' uteri, in relation to 17β-estradiol = 100
T1 construct: oestrogen receptor of a calf's uterus; from tissue; host or cells: calf uterus
T1 sequence (P49884 1-596): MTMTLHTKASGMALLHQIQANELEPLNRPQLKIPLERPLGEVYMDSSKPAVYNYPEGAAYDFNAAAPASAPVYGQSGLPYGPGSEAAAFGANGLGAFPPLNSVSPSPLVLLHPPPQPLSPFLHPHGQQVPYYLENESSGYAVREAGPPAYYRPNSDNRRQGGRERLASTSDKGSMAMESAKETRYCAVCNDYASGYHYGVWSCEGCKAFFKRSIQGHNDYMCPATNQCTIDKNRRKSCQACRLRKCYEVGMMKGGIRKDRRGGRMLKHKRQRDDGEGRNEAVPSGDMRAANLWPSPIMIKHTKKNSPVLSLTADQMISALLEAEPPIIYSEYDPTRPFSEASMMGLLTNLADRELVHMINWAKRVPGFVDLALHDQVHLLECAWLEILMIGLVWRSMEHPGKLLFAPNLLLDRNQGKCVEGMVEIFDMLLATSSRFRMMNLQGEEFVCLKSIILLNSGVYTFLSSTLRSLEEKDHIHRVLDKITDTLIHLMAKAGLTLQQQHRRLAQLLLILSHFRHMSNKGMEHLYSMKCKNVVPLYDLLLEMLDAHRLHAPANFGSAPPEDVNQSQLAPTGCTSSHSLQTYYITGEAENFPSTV
Source text: The test methodology is described in Cancer Treatment Reviews 1984, 11, 147.
*Relative bonding affinities to the oestrogen receptor of calves' uteri,
in relation to 17β-estradiol = 100

[2] = system: uterus of infantile mice; assay: Anti-uterotrophic test (in-vivo test on infantile mice); settings: simultaneous 0.4 μg oestron/animal/day; for anti-uterotrophic test, effect: uterus dry weight (mg)/body weight (g) × 100
Procedure: (§1) The effectiveness of these compounds was found in an in-vivo test on infantile mice. This test is extensively described in Cancer Treatment Reviews 1984, 11, 147, and J. Med. Chem., 1984, 27, 1439.
(§2) ^a dosage/animal, administered s.c. on three consecutive days in oliv
(§3) ^b uterus dry weight (mg)/body weight (g) × 100, determined 24
(§4) hours after the final injection.
^c simultaneous administration of 0.4 μg oestron/animal/day.

[3] = system: uterus of infantile mice; assay: Uterotrophic test (in-vivo test on infantile mice); settings: uterus dry weight (mg)/body weight (g) × 100
Procedure: as §1, §2, §3, §4

[4] = system: human MCF-7 mamma carcinoma cells; assay: Effect on cell growth of MCF-7 cells; format: cell-based; settings: for activity at 10 µM / activity at 1 µM / activity at 0.1 µM / activity at 5 µM: Homo sapiens, MCF7, mean of 16 individual results, read-out: T/C (corrected); for activity at 10 µM: 1 × 10^-5 M; for activity at 1 µM: 1 × 10^-6 M; for activity at 0.1 µM: 1 × 10^-7 M; for activity at 5 µM: 5 × 10^-6 M
Procedure: Data given as corrected T/C values (%).
^a Inhibiting effect on MCF7 cells: quotient of optical densities fro
standard deviation through error reckoning according to GAUSS.
^b Substance concentration (mol/1) in incubation medium.
^c Significant p < 0.01 in relation to control group (C).

[5] = 1 μg/animal s.c. on three consecutive days
[6] = 5 μg/animal s.c. on three consecutive days
[7] = 25 μg/animal s.c. on three consecutive days
[8] = 125 μg/animal s.c. on three consecutive days

RBA* (relative bonding affinity to the oestrogen receptor) [1] | Compound | affinity to the oestrogen (estradiol) receptor, in words [1] | anti-uterotrophic test, inhibition ([2]; 5 μg/animal s.c.) [%] | anti-uterotrophic test, inhibition ([2]; 125 μg/animal s.c.) [%] | anti-uterotrophic test, effect ([2]; 5 μg/animal s.c.) [mg/g × 100] | anti-uterotrophic test, effect ([2]; 25 μg/animal s.c.) [mg/g × 100] | anti-uterotrophic test, effect ([2]; 125 μg/animal s.c.) [mg/g × 100] | uterotrophic test, effect [3, 5] [mg/g × 100] | uterotrophic test, effect [3, 6] [mg/g × 100] | uterotrophic test, effect [3, 7] [mg/g × 100] | uterotrophic test, effect [3, 8] [mg/g × 100] | effect on the growth of MCF-7 / hormone-dependent tumour cells, in words [4] | activity at 10 µM [4] [%] | activity at 1 µM [4] [%] | activity at 0.1 µM [4] [%] | activity at 5 µM [4] [%] | anti-uterotrophic test, inhibition ([2]; 25 μg/animal s.c.) [%] | also measured
25,1 | CCCc1c(-c2ccc(O)cc2)sc2cc(O)ccc12 [Compound 106b, 6-hydroxy-2-(4-hydroxyphenyl)-3-propylbenzo[b]thiophen] | greatest affinity in relation to estradiol | 34 | 40 | 37.0 ± 6.5 | 35.3 ± 6.7 | 34.8 ± 6.2 | 16.6 ± 4.6 | 22.4 ± 3.1 | 24.5 ± 4.8 | 35.1 ± 4.9 | strongly inhibiting effect | 1.8 ± 3.1 | 69 ± 15.1 | 81.7 ± 17.5 | 3.6 ± 3 | 39 | –
7,1 | Oc1ccc(-c2sc3cc(O)ccc3c2CCCCCCN2CCCCC2)cc1 [Compound 119b, 6-hydroxy-2-(4-hydroxyphenyl)-3-(6-N-piperidinylhexyl)benzo[b]thiophen] | – | 73 | 61 | 26.1 ± 5.4 | 22.8 ± 2.6 | 30.0 ± 5.6 | 19.8 ± 3.1 | 20.7 ± 5.0 | 19.4 ± 2.1 | 34.2 ± 9.5 | strongly inhibiting effect | -13.5 ± 3.2 | 48.1 ± 12.4 | 18.8 ± 7.2 | 2 ± 3.6 | 65 | –

The remaining lines, values behind:

Compound | RBA* (relative bonding affinity to the oestrogen receptor) [1] | affinity to the oestrogen (estradiol) receptor, in words [1] | anti-uterotrophic test, inhibition ([2]; 5 μg/animal s.c.) [%] | anti-uterotrophic test, inhibition ([2]; 125 μg/animal s.c.) [%] | anti-uterotrophic test, effect ([2]; 5 μg/animal s.c.) [mg/g × 100] | anti-uterotrophic test, effect ([2]; 25 μg/animal s.c.) [mg/g × 100] | anti-uterotrophic test, effect ([2]; 125 μg/animal s.c.) [mg/g × 100] | uterotrophic test, effect [3, 5] [mg/g × 100] | uterotrophic test, effect [3, 6] [mg/g × 100] | uterotrophic test, effect [3, 7] [mg/g × 100] | uterotrophic test, effect [3, 8] [mg/g × 100] | effect on the growth of MCF-7 / hormone-dependent tumour cells, in words [4] | activity at 10 µM [4] [%] | activity at 1 µM [4] [%] | activity at 0.1 µM [4] [%] | activity at 5 µM [4] [%] | anti-uterotrophic test, inhibition ([2]; 25 μg/animal s.c.) [%] | also measured
CCc1c(-c2ccc(O)cc2)sc2ccc(O)cc12 [Compound 104a, 3-ethyl-5-hydroxy-2-(4-hydroxyphenyl)benzo[b]thiophen] | 59,6 | greatest affinity in relation to estradiol | 27 | 30 | 37.0 ± 3.4 | 44.1 ± 6.7 | 36.3 ± 4.0 | 30.3 ± 7.7 | 38.5 ± 5.4 | 44.2 ± 6.6 | 19.6 ± 5.2 | strongly inhibiting effect | 3.2 ± 3.2 | 59.1 ± 15.9 | 61.2 ± 22.1 | 2.4 ± 3.9 | – | anti-uterotrophic test, inhibition ([2]; 1 μg/animal s.c.): 32%; anti-uterotrophic test, effect ([2]; 0.2 μg/animal s.c.): 49.8 ± 1.4 mg/g × 100; anti-uterotrophic test, effect ([2]; 1 μg/animal s.c.): 35.3 ± 7.3 mg/g × 100; uterotrophic test, effect ([3]; 0.2 μg/animal s.c. on three consecutive days, 24 hours after final injection): 27.6 ± 3.8 mg/g × 100
CCc1c(-c2ccc(O)cc2)sc2cc(O)ccc12 [Compound 104b, 3-ethyl-6-hydroxy-2-(4-hydroxyphenyl)benzo[b]thiophen] | 27,6 | greatest affinity in relation to estradiol | 32 | 31 | 37.9 ± 6.9 | 37.3 ± 4.2 | 38.0 ± 5.4 | 18.0 ± 4.0 | 22.7 ± 5.9 | 29.3 ± 4.5 | 39.9 ± 6.1 | strongly inhibiting effect | 4.2 ± 6 | 91.9 ± 21.2 | 94 ± 21.2 | 5.7 ± 5.8 | 33 | –
CCCc1c(-c2ccc(O)cc2)sc2ccc(O)cc12 [Compound 106a, 5-hydroxy-2-(4-hydroxyphenyl)-3-propylbenzo[b]thiophen] | 21,9 | greatest affinity in relation to estradiol | 27 | – | 34.4 ± 7.1 | 48.0 ± 4.2 | 48.8 ± 4.1 | 25.4 ± 6.2 | 32.7 ± 5.0 | 35.3 ± 7.5 | 51.2 ± 9.9 | strongly inhibiting effect | 0.3 ± 3.5 | 35 ± 10.4 | 77.1 ± 21.4 | 2.3 ± 4.1 | – | –
